# Data from PMC4188015 (Acta Crystallographica Section D: Biological Crystallography, 2014).
# Where two headings read alike, the source gives them in different places.
# Assays:
# [1] = ITC; n = 8; ref Antolikova et al. (2011); listed as wild-type human insulin; read-out: K diss (dimer↔monomer); cited from earlier work
# IR site 2 = conditions: ref Kiselyov et al., 2009; read-out: K d, IR low-affinity site 2; cited from earlier work
# Text: (§1) Extensive mutagenesis and cross-linking studies of both insulin and IR led to the discovery and mapping of two sites on the IR that are responsible for engaging with the hormone. […] The hormone–receptor interaction events are comp ...
# [2] = test system: both rat IR-A and IR-B isoforms; test: Receptor binding, rat adipocyte plasma membranes
# Experimental: Receptor-binding studies with the insulin receptor in plasma membranes containing both rat IR-A and IR-B isoforms prepared from epididymal adipose tissue of adult male Wistar rats were performed and analyzed according to Žáková et al. (2008[▶]). Binding data were analyzed using GraphPad Prism 5. Half-maximal inhibition values of binding of [^125I]-insulin to the receptor (IC50) were obtained using a nonlinear regression method and a one-site fitting program.
# IR-B = conditions: single mutation; ref Glendorf et al. (2011); cited from earlier work
# Text: The IR-B:IR-A specificity ratio of insulin analogues is of considerable interest owing to IR-B being the dominant (∼90–95%) receptor isoform in the liver (Moller et al., 1989[▶]). This, together with the anatomic proximity of the pancreas and the liver (short hepatic portal vein connectivity), makes the liver the major glucose homeostatic organ.
# IR = conditions: ref Žáková et al., 2013; cited from earlier work
# Text: The full-length insulin B26-site mutants AsnB26, AspB26, PheB26, GlnB26 and GlyB26 have been prepared and characterized. […] In the cases of [PheB26]-insulin and [GlyB26]-insulin, we aimed to investigate the structural consequences of the loss of the TyrB26 side-chain hydroxyl group or the whole TyrB26 side chain, respectively. The affinities of the analogues for the IR-A isoform (IM-9 lymphocytes) and of selected ...
# IR-A = conditions: ref Morcavallo et al., 2012; read-out: K d for IR-A; cited from earlier work
# Text: as §1
# [3] = Isothermal microcalorimetry (ITC) of dimerization (dimer-monomer dissociation); assay type: physicochemical; conditions: mean ± spread, n = 3, read-out: K diss (dimer↔monomer)
# Experimental: Investigations of the dimerization abilities of selected insulin analogues were performed as described in detail previously (Antolikova et al., 2011[▶]).
# [4] = test system: both rat IR-A and IR-B isoforms; conditions: rat adipocytes, ref Jiracek et al. (2010), cited from earlier work
# Text: In the cases of [PheB26]-insulin and [GlyB26]-insulin, we aimed to investigate the structural consequences of the loss of the TyrB26 side-chain hydroxyl group or the whole TyrB26 side chain, respectively. The affinities of the analogues for the IR-A isoform (IM-9 lymphocytes) and of selected ...
substance,measurement,setting,value
Human insulin,Kd,[1],~9000 nM
same,Kd,IR site 2,~400 nM
[GlyB26]-insulin,"Potency (relative receptor-binding affinity), rat IR-A and IR-B","[2]; (IC50 of human insulin/IC50 of analogue) × 100, rat adipocytes",~70%
same,IC50,"[2]; half-maximal inhibition of binding of human 125I-TyrA14 insulin, rat adipose plasma membranes, mean ± SE (n), SEM, read-out: IC50 ± SE for both rat IR-A and IR-B in rat adipocytes",1.16 ± 0.12 nM
[AsnB25]-insulin,IR-B specificity,IR-B,doubling of the IR-B specificity
"[GluB26,LysB28,ProB29]-insulin",binding affinity relative to human insulin,IR,193%
insulin-like growth factor II [IGF-II],Kd,IR-A,~4 nM
[PheB26]-insulin,Kd,[3],27200 ± 7400 nM
same,"Potency (relative receptor-binding affinity), rat IR-A and IR-B",[4],46 ^¶ %
same,"Potency (relative receptor-binding affinity), rat IR-A and IR-B",[4]; listed as PheB26,less than 50%
